This passage reports EC50 results from ChEMBL document CHEMBL1141766, “Isoprenylated naphthoquinone dimers firmianones A, B, and C from Firmiana platanifolia” (2005).

This test relates to P388. Briefly: Cytotoxicity against mouse P388 cells. It counts as functional. The note with it: read-out: ED50 (the source's name).

On to `CC1=C[C@@H]2c3c(c(O)c4ccccc4c3O[C@@H]3O[C@H](CO)[C@@H](O)[C@H](O)[C@H]3O)[C@@]3(O)c4cccc(O)c4C(=O)[C@]2(/C=C/C(C)(C)O)[C@@]3(O)C1` [FIRMIANONE B], for which the EC50 was 8.1 µM.

Take `CC1=C[C@@H]2c3c(c(O)c4ccccc4c3O[C@@H]3O[C@H](CO)[C@@H](O)[C@H](O)[C@H]3O)[C@@]3(O)c4ccccc4C(=O)[C@]2(/C=C/C(C)(C)O)[C@@]3(O)C1` [FIRMIANONE A]: the EC50 is 6.5 µM.
